Assay results from patent publication US5244916A, “Inhibition of respiratory burst using posttranslational modification inhibitors” (The Scripps Research Institute, priority 1992, dated 1993).

Assays:
Rap1 = test: Metabolic labeling and immune precipitation of processed and unprocessed Rap1 in HL-60 cells; assay type: cell-based; conditions: various concentrations
Protocol: Analysis of Rapl processing in HL-60 cells was performed by labeling cells (8×10^5 /ml) with 200μCi/ml ^35 S-Trans-label (ICN Biomedicals, Inc., Costa Mesa, CA) for 5 days during cell differentiation with 1.3% DMSO in Cys-Met-free medium containing 12% dialyzed fetal bovine serum. Various concentrations of compactin were included as indicated. Metabolically labeled cells were collected, washed once with isotonic NaCl, treated with 2.5 mM Hepes pH 7.5, 100 mM NaCl, 1 mM EDTA, 1 % Triton X-100, 2.5 μM PMSF, and 100U aprotonin. After a 15-minute incubation on ice, the cell lysates were pelleted in a microfuge for 2 minutes and then the supernatant was transferred to clean tubes containing 100 μl 4M NaCl, 5 μl 10% SDS, and 50 μl10% deoxycholate. The samples were boiled for two minutes, pelleted, and transferred to clean tubes containing 2 μl of the primary antibody, 142-24E05 (Chesa, et al., PNAS USA 84: 3234-3238 (1987); Bokoch, et al., J. Biol. Chem. 263: 16744-16749 (1988)). […]
In untreated cells, Rapl was present largely in the membrane fraction, with very little Rapl in the cytosol. […] Isoprenylation of Rapl was also assessed by metabolic labeling of the HL-60 cells with immune precipitation of Rap1, and analysis of the 22kD processed and 23kD unprocessed forms of Rap1 (Buss, et al., Mol. Cell, Biol. 11: 1523-1527 (1991)).

HL-60 cells = test: HL-60 differentiation after DMSO (N-formyl peptide receptor and CD14 markers); assay type: cell-based; conditions: concentrations of the studies
Protocol: Cell viability was determined by uptake of propidium iodide (537-059; Calbiochem-Behring Corp., La Jolla, CA), detected from the emission fluorescence at 625/35 nm using a DM560 dichronic mirror (Krishan, J. Cell. Biol. 66: 188-192 (1975)). Expression of N-formyl peptide receptor was determined using fluorescein-labeled N-CHONle-Leu-Phe-Nle-Tyr-Lys (Molecular Probes, Inc., Eugene, OR) essentially by the method of Sklar and Finney (Sklar and Finney, Cytometry 3: 161-165 (1982)). Specificity of ligand binding was determined in the presence of 4 mM unlabeled T-boc peptide. CD14 expression was determined using monoclonal antibody 3C10 at a dilution of 1:1,000 (see Goyert and Ferrero, in Leucocyte Typing III: White Cell Differentiation Antigens, McMichael, ed., Oxford Univ. Press, NY, pp. 613-619 (1988)), with detection using a fluorescein-labeled secondary antibody. Flow cytometric analyses were performed on a FACSIV (registered trademark of Becton-Dickinson, San Jose, CA) equipped with a 2W argon laser (Coherent Inc., Palo Alto, collected in list mode and analyzed using the Consort 30 program (Becton-Dickinson, San Jose, CA) after collecting 10,000 events.
HL-60 differentiation was assessed using two distinct markers: appearance of N-formyl peptide receptors and appearance of the CD14 antigen.

NADPH oxidase = test: Cell-free O2- formation by subcellular fractions from compactin-treated HL-60 cells, complemented with human neutrophil fractions, SDS-initiated; assay type: biochemical; conditions: for Rate of O2 formation / Rate, percent of respective untreated HL-60 sample: 10 μM
Protocol: The cells were then pelleted and resuspended in 10 mM Pipes pH 7.3, 100 mM KCl, 3 mM NaCl, 1 mM ATP, 3.5mM MgCl2 (Relax buffer) plus 100U aprotonin/ml, 1 mM PMSF, and 0.34M sucrose to a final concentration of about 1×10^8 /ml. […] Louis, MO), 6.25 mM MgCl2, 93 mM KCl, 2.8 mM NaCl, 9.3 mM Pipes pH 7.3, 0.8mM ATP, 0.16 mM NADPH, 10 μM GTPgammaS, 225 μg HL-60 cytosol, or 250 μg ([…]; cell equivalents) of human neutrophil cytosol and ±300μg/ml SOD (Sigma Chemical Co., St. Louis, MO). After a three-minute equilibration at 25° C., the formation of O2 --was initiated by the addition of 100 μM SDS. O2 --generation was monitored continuously as the SOD-sensitive reduction of cytochrome c at 550 nm. Human neutrophil plasma membranes (gamma-GSP) and cytosol (GSS) were prepared as described in (Curnutte, et al., suora (1987)). […] To localize the compactin-sensitive factor required for NADPH oxidase activity to either the cytosol, membrane, or both, subcellular fractions from control or compactin-treated differentiated HL-60 cells were prepared. The membrane fraction and cytosol from the cells were then analyzed using the cell-free NADPH oxidase system. […] HL-60 cells were treated ±10 μM compactin, as described herein. Untreated cytosol/membrane and compactin cytosol/membrane, etc., refer to the fractions obtained from these cells. Values are the result of duplicate determinations within each experiment. Values in parentheses represent the percent of the rate obtained for the respective untreated HL-60 sample. Whether the inhibited factor(s) was present in the membrane fraction or cytosol was determined via performing complementation experiments using cytosol or membranes from normal human neutrophils. Data from these experiments is illustrated above in Table 3 and in FIG. 2. FIG. 2 illustrates complementation analysis of O2 -formation by control versus compactin-treated HL-60 cells. O2 --formation was analyzed in a cell-free assay as described in the Examples. Line A represents untreated HL-60 membrane +neutrophil GSS; line B represents compactin-treated HL-60 membrane+neutrophil GSS; line C represents untreated HL-60 cytosol+neutrophil gamma GSP; line D represents compactin-treated HL-60 cytosol+neutrophil gamma GSP.

[1] = Exp. 1, compactin cytosol + compactin membrane
[2] = Exp. 1, compactin cytosol + neutrophil membrane
[3] = Exp. 1, neutrophil cytosol + compactin membrane
[4] = Exp. 2, compactin cytosol + compactin membrane
[5] = Exp. 2, compactin cytosol + neutrophil membrane
[6] = Exp. 2, neutrophil cytosol + compactin membrane
[7] = Exp. 3, compactin cytosol + neutrophil membrane
[8] = Exp. 3, neutrophil cytosol + compactin membrane

`CC[C@H](C)C(=O)O[C@H]1CCC=C2C=C[C@H](C)[C@H](CC[C@@H]3C[C@@H](O)CC(=O)O3)[C@H]21` [compactin] was tested, and the “22 kD processed form of Rap1” value (Rap1) was “dose-dependent decrease”, the “23 kD unprocessed form of Rap1” value (Rap1) was “proportional increase” and the “ability of HL-60 cells to differentiate normally upon exposure to DMSO” value (HL-60 cells) was “neither was the ability of these cells to differentiate normally”. The “rate and extent of the burst, fractions from compactin-pretreated cells” value (NADPH oxidase; 10 μM compactin, compactin cytosol + compactin membrane, 100 μM SDS) was “less than 10 % of control values”, the “Rate of O2 formation” value (NADPH oxidase; [1]) was 0.1 nmol/min and the “Rate, percent of respective untreated HL-60 sample” value (shortened to “Rate, percent”) (NADPH oxidase; [1]) was 1%. For the same molecule, the “Rate of O2 formation” value (NADPH oxidase; [2]) was 1.1 nmol/min, the “Rate, percent” value (NADPH oxidase; [2]) was 33% and the “Rate of O2 formation” value (NADPH oxidase; [3]) was 1.9 nmol/min. The “Rate, percent” value (NADPH oxidase; [3]) was 95%, the “Rate of O2 formation” value (NADPH oxidase; [4]) was 0.4 nmol/min and the “Rate, percent” value (NADPH oxidase; [4]) was 5%. For the same molecule, the “Rate of O2 formation” value (NADPH oxidase; [5]) was 1.5 nmol/min, the “Rate, percent” value (NADPH oxidase; [5]) was 37% and the “Rate of O2 formation” value (NADPH oxidase; [6]) was 2.6 nmol/min. For the same molecule, the “Rate, percent” value (NADPH oxidase; [6]) was 100%, the “Rate of O2 formation” value (NADPH oxidase; [7]) was 2.4 nmol/min and the “Rate, percent” value (NADPH oxidase; [7]) was 47%. The “Rate of O2 formation” value (NADPH oxidase; [8]) was 4.0 nmol/min, the “Rate, percent” value (NADPH oxidase; [8]) was 98% and the “rate of O2- formation relative to untreated HL-60 cytosol” value (NADPH oxidase; compactin cytosol + neutrophil membrane) was “about one-third”. For the same molecule, the “lag period after addition of SDS” value (NADPH oxidase; compactin cytosol + neutrophil membrane, FIG. 2) was “marked increase”, the “rate of O2- formation with membrane from compactin-treated cells” value (NADPH oxidase; compactin membrane + neutrophil cytosol, versus untreated) was “essentially identical” and the “ability of cytosol to support oxidative response” value (NADPH oxidase; cytosol from compactin-treated cells) was “largely defective”. For the same molecule, the “ability of membrane fraction to support respiratory burst” value (NADPH oxidase; membrane from compactin-treated cells) was “fully support a normal respiratory burst”.
